{"source": "ChEMBL document CHEMBL4630907", "about": "(2021)", "key": {"[1]": {"target": "5-hydroxytryptamine receptor 1D (Homo sapiens) (UniProt P28221)", "details": "Compound concentration 10.0 uM"}, "[2]": {"target": "T1, 5-hydroxytryptamine receptor 3A (Homo sapiens, UniProt P46098)", "T1 sequence (P46098 whole entry)": "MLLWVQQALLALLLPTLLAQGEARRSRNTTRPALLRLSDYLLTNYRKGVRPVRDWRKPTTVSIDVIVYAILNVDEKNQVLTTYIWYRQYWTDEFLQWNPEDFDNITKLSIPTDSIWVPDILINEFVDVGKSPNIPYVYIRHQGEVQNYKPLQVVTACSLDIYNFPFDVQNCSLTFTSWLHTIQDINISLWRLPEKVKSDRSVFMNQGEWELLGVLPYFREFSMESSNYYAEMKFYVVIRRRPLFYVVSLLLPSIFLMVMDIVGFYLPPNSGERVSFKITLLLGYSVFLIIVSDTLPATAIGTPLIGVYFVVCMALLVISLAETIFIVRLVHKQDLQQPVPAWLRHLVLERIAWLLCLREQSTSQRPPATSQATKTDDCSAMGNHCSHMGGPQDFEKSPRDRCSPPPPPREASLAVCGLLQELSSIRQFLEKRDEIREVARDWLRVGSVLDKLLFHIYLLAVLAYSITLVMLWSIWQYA", "test": "GPCRScan assay: inhibition of 5-HT3", "set-up": "radioligand conc. used [nm] 1.0 – 2.0, parental cells HEKT"}, "[3]": {"target": "Transcription initiation factor TFIID subunit 1 (Homo sapiens, UniProt P21675)", "test": "TAF1(2) DiscoverX BROMOscan"}, "[4]": {"target": "T2, Bromodomain-containing protein 3 (Homo sapiens, UniProt Q15059)", "test": "BET mutant TR-FRETassay (BRD3 BD1)"}, "[5]": {"target": "T2, Bromodomain-containing protein 3", "test": "BRD3 Bromoscan (DiscoverX)"}, "[6]": {"target": "GABA-A receptor; anion channel", "test": "GPCRScan assay: inhibition of GABAA/BZP", "type": "protein-complex assay, Rattus norvegicus", "set-up": "radioligand conc. used [nm] 0.6 – 4.0, parental cells brain tissue"}, "[7]": {"target": "T3, Protein polybromo-1 (Homo sapiens, UniProt Q86U86)", "T3 sequence (Q86U86 whole entry)": "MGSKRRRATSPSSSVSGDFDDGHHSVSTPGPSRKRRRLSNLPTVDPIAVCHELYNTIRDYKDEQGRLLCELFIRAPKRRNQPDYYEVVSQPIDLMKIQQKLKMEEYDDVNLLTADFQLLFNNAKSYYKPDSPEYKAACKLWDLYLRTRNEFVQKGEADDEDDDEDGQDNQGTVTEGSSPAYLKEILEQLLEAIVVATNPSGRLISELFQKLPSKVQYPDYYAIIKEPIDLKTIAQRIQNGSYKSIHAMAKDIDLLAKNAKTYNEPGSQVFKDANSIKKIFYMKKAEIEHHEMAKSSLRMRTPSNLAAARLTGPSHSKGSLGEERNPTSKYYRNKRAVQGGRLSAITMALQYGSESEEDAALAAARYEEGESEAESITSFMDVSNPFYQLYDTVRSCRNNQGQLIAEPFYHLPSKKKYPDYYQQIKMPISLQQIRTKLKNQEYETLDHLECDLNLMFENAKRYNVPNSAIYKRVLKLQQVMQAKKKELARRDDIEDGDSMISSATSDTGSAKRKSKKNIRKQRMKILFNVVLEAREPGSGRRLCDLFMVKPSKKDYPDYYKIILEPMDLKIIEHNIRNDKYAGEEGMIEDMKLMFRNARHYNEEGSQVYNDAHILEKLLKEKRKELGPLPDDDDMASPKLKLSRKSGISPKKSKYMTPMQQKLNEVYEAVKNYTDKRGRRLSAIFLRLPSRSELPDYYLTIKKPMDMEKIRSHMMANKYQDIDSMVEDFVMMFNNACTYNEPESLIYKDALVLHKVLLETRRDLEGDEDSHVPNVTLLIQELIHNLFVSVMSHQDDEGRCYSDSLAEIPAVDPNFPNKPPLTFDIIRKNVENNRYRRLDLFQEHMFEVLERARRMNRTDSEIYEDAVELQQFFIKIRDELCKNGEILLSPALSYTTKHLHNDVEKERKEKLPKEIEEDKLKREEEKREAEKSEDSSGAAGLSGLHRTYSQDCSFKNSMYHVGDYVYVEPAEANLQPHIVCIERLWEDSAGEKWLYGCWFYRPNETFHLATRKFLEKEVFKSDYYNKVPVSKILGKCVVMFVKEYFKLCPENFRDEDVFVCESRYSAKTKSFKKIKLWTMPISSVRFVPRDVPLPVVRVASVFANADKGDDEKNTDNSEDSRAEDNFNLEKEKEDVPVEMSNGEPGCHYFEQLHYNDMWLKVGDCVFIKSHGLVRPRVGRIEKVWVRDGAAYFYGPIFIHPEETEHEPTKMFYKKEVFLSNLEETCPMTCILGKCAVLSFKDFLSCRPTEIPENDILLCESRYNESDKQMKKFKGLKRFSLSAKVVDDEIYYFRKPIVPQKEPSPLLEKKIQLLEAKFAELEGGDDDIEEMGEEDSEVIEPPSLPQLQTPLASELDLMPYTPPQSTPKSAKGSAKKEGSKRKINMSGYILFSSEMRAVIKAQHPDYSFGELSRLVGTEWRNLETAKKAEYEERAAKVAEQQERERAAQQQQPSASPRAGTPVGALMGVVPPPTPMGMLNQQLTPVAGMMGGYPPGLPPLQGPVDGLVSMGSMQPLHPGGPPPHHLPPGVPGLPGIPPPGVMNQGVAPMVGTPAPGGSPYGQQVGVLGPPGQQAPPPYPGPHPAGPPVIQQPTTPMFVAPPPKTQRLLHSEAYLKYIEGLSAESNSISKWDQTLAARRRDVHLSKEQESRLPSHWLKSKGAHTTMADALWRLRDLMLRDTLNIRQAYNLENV", "test": "PBRM1(2) DiscoverX BROMOscan"}, "[8]": {"target": "Bromodomain adjacent to zinc finger domain protein 2A (Homo sapiens, UniProt Q9UIF9)", "test": "BAZ2A DiscoverX BROMOscan"}, "[9]": {"target": "GABA-A receptor; anion channel", "test": "GPCRScan assay: inhibition of GABAA", "type": "protein-complex assay, Rattus norvegicus", "set-up": "radioligand conc. used [nm] 9.50 – 25.0, parental cells brain tissue"}, "[10]": {"target": "Beta-1 adrenergic receptor (Homo sapiens) (UniProt P08588)", "details": "Compound concentration 10.0 uM"}, "[11]": {"target": "Muscarinic acetylcholine receptor M1 (Homo sapiens) (UniProt P11229)", "details": "Compound concentration 10.0 uM"}, "[12]": {"target": "Beta-3 adrenergic receptor (Homo sapiens) (UniProt P13945)", "sequence (P13945 whole entry, looked up)": "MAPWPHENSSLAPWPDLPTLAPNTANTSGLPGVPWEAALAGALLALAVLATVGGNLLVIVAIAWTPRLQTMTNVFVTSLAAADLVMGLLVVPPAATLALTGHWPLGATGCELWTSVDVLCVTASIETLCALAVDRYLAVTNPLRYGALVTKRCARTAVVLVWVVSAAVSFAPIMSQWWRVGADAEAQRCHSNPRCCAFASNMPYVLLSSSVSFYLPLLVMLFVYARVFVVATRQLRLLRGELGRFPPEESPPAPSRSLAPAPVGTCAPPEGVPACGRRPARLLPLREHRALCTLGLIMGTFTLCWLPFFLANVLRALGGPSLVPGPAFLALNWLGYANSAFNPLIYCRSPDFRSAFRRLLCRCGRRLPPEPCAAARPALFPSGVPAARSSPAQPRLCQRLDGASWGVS", "details": "Compound concentration 10.0 uM"}, "[13]": {"target": "T2, Bromodomain-containing protein 3", "test": "BRD3(2) DiscoverX BROMOscan"}, "[14]": {"target": "ATPase family AAA domain-containing protein 2B (Homo sapiens, UniProt Q9ULI0)", "test": "ATAD2B DiscoverX BROMOscan"}, "[15]": {"target": "Muscarinic acetylcholine receptor M4 (Homo sapiens) (UniProt P08173)", "details": "Compound concentration 10.0 uM"}, "[16]": {"target": "T3, Protein polybromo-1", "test": "PBRM1(5) DiscoverX BROMOscan"}, "[17]": {"target": "T4, Bromodomain-containing protein 2 (Homo sapiens, UniProt P25440)", "T4 sequence (P25440 whole entry)": "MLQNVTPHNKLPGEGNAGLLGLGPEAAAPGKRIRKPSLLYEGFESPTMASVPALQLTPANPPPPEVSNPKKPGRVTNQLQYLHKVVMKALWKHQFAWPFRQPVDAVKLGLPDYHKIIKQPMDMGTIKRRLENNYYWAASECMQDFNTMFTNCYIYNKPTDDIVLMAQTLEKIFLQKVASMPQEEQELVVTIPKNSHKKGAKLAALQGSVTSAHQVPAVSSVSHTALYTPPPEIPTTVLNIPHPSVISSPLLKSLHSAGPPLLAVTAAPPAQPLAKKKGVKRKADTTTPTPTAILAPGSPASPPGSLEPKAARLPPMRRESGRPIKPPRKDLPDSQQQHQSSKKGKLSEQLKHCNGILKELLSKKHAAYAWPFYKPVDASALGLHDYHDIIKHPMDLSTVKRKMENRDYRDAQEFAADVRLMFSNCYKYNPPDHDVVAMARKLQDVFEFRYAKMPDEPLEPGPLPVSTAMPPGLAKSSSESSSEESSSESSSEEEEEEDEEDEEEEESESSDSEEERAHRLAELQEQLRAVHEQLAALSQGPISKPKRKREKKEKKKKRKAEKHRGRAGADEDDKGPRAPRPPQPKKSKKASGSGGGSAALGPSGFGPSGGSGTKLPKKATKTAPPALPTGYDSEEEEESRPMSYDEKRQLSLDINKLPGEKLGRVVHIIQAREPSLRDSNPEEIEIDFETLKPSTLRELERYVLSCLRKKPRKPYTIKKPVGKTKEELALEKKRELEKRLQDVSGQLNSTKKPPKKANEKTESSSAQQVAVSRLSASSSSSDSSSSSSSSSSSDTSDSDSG", "test": "TR-FRET assay (BRD2 BD1)"}, "[18]": {"target": "Muscarinic acetylcholine receptor M3 (Homo sapiens) (UniProt P20309)", "details": "Compound concentration 10.0 uM"}, "[19]": {"target": "5-hydroxytryptamine receptor 2C (Homo sapiens) (UniProt P28335)", "details": "Compound concentration 10.0 uM"}, "[20]": {"target": "D(2) dopamine receptor (Homo sapiens, UniProt P14416)", "details": "Compound concentration 10.0 uM"}, "[21]": {"target": "GABA-A receptor; anion channel (Rattus norvegicus) (UniProt O09028+P15431+P18506+P18508+P19969+P20236+P23574+P23576+P28471+P28473+P30191+P62813+P63079+P63138+Q91ZM7+Q9ES14)", "details": "Compound concentration 10.0 uM"}, "[22]": {"target": "D(4) dopamine receptor (Homo sapiens, UniProt P21917)", "sequence (P21917 whole entry)": "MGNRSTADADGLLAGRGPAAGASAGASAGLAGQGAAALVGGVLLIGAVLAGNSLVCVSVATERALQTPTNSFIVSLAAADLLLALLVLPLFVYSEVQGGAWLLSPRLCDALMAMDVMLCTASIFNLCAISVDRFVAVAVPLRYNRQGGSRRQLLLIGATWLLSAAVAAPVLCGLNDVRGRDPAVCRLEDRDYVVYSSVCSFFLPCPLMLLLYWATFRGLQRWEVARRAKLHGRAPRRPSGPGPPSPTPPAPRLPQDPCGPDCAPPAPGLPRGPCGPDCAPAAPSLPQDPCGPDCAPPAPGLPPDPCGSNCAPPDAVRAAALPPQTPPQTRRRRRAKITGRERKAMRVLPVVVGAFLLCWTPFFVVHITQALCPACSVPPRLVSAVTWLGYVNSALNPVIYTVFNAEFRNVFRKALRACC", "test": "GPCRScan assay: inhibition of D4", "set-up": "radioligand conc. used [nm] 0.6 – 1.7, parental cells Stable HEK"}, "[23]": {"target": "Chromatin remodeling regulator CECR2 (Homo sapiens, UniProt Q9BXF3)", "test": "CECR2 DiscoverX BROMOscan"}, "[24]": {"target": "Histone acetyltransferase p300 (Homo sapiens, UniProt Q09472)", "test": "EP300 DiscoverX BROMOscan"}, "[25]": {"organism": "Rattus norvegicus", "details": "Compound concentration 10.0 uM"}, "[26]": {"target": "Alpha-1A adrenergic receptor (Homo sapiens) (UniProt P35348)", "sequence (P35348 whole entry)": "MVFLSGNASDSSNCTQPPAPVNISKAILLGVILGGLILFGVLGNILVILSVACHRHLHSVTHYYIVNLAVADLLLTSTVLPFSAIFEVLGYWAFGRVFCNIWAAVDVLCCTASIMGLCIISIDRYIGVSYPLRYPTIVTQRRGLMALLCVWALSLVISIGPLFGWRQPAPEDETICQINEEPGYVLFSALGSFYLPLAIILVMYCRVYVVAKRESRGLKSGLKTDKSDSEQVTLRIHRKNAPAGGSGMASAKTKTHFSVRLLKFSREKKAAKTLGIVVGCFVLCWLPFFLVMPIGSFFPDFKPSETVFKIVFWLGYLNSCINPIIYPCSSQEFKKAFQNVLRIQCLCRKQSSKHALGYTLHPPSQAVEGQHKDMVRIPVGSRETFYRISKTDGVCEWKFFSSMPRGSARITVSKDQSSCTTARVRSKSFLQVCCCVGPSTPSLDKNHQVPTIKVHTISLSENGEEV", "details": "Compound concentration 10.0 uM"}, "[27]": {"target": "SWI/SNF-related matrix-associated actin-dependent regulator of chromatin subfamily A member 2 (Homo sapiens, UniProt P51531)", "test": "SMARCA2 DiscoverX BROMOscan"}, "[28]": {"target": "T4, Bromodomain-containing protein 2", "test": "BRD2(1) DiscoverX BROMOscan"}, "[29]": {"target": "Bromodomain adjacent to zinc finger domain protein 2B (Homo sapiens, UniProt Q9UIF8)", "test": "BAZ2B DiscoverX BROMOscan"}, "[30]": {"target": "Alpha-2A adrenergic receptor (Homo sapiens) (UniProt P08913)", "details": "Compound concentration 10.0 uM"}, "[31]": {"target": "T4, Bromodomain-containing protein 2", "test": "BRD2(2) DiscoverX BROMOscan"}, "[32]": {"target": "Histamine H3 receptor (Homo sapiens) (UniProt Q9Y5N1)", "details": "Compound concentration 10.0 uM"}, "[33]": {"target": "Alpha-1B adrenergic receptor (Homo sapiens) (UniProt P35368)", "details": "Compound concentration 10.0 uM"}, "[34]": {"target": "5-hydroxytryptamine receptor 1A (Homo sapiens) (UniProt P08908)", "details": "Compound concentration 10.0 uM"}, "[35]": {"target": "T2, Bromodomain-containing protein 3", "test": "TR-FRET assay (BRD3 BD1)"}, "[36]": {"target": "5-hydroxytryptamine receptor 6 (Homo sapiens) (UniProt P50406)", "details": "Compound concentration 10.0 uM"}, "[37]": {"target": "Alpha-2C adrenergic receptor (Homo sapiens) (UniProt P18825)", "details": "Compound concentration 10.0 uM"}, "[38]": {"target": "T4, Bromodomain-containing protein 2", "test": "BRD2 Bromoscan (DiscoverX)"}, "[39]": {"target": "D(4) dopamine receptor (Homo sapiens) (UniProt P21917)", "sequence (P21917 whole entry)": "as the sequence (P21917 whole entry) above", "details": "Compound concentration 10.0 uM"}, "[40]": {"target": "Histone acetyltransferase KAT2A (Homo sapiens, UniProt Q92830)", "test": "GCN5L2 DiscoverX BROMOscan"}, "[41]": {"target": "T5, Transcription intermediary factor 1-alpha (Homo sapiens, UniProt O15164)", "T5 sequence (O15164 whole entry)": "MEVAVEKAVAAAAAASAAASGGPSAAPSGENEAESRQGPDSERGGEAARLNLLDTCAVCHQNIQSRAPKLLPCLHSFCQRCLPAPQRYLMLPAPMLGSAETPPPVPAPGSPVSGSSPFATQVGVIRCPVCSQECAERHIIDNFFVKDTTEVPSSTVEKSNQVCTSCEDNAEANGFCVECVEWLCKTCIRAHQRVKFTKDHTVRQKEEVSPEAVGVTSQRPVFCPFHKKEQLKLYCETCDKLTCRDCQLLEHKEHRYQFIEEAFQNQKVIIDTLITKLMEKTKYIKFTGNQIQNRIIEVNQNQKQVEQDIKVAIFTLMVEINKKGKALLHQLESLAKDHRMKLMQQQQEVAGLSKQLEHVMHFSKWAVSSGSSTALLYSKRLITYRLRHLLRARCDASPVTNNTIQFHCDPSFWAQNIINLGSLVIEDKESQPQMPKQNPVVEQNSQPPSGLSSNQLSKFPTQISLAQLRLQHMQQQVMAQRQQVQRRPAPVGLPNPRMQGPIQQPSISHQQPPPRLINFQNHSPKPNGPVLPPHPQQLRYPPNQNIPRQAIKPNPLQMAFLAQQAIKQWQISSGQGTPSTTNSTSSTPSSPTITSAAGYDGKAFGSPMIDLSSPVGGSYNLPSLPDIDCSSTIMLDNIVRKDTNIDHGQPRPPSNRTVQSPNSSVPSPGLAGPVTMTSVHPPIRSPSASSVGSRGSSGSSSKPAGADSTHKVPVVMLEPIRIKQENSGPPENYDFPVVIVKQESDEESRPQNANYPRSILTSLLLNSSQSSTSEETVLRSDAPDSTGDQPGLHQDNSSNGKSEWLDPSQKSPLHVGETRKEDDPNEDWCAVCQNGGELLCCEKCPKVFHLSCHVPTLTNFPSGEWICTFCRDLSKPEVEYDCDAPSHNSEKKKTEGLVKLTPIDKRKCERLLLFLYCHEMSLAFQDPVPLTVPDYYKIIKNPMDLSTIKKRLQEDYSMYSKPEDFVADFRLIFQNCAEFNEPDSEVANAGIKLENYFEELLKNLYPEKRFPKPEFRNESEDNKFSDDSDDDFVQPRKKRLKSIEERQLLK", "test": "TRIM24(PHD,Bromo.) DiscoverX BROMOscan"}, "[42]": {"target": "T2, Bromodomain-containing protein 3", "test": "TR-FRET assay (BRD3 BD2)"}, "[43]": {"target": "Bromodomain and PHD finger-containing protein 3 (Homo sapiens, UniProt Q9ULD4)", "test": "BRPF3 DiscoverX BROMOscan"}, "[44]": {"target": "T5, Transcription intermediary factor 1-alpha", "test": "TRIM24(BROMO.) DiscoverX BROMOscan"}}, "note": "Activity calls are given as the source filed them. No cut-off for these calls is given here."}
{"smiles": "COCc1nc2cnc3cc(-c4c(C)noc4C)c(OC[C@H]4CCNC4)cc3c2n1[C@H](C)c1ccccc1", "note": "[GSK778]", "values": [{"measurement": "inhibition", "setting": "[1]", "result": 14.8, "unit": "%"}, {"measurement": "Ki", "setting": "[2]", "result": 4.46, "unit": "µM"}, {"measurement": "Kd", "setting": "[3]", "result": 30, "unit": "µM"}, {"measurement": "pIC50", "setting": "[4]", "result": 7.4}, {"measurement": "Kd", "setting": "[5]", "result": "0.005 µM (active)"}, {"measurement": "Ki", "setting": "[6]", "result": 1.97, "unit": "µM"}, {"measurement": "pKi", "setting": "[6]", "result": 5.75}, {"measurement": "Kd", "setting": "[7]", "result": 29, "unit": "µM"}, {"measurement": "Kd", "setting": "[8]", "result": 30, "unit": "µM"}, {"measurement": "Ki", "setting": "[9]", "result": 1.6, "unit": "µM"}, {"measurement": "pKi", "setting": "[9]", "result": 5.81}, {"measurement": "inhibition", "setting": "[10]", "result": 4.82, "unit": "%"}, {"measurement": "inhibition", "setting": "[11]", "result": -1.37, "unit": "%"}, {"measurement": "inhibition", "setting": "[12]", "result": 10.5, "unit": "%"}, {"measurement": "Kd", "setting": "[13]", "result": 0.31, "unit": "µM"}, {"measurement": "Kd", "setting": "[14]", "result": 25, "unit": "µM"}, {"measurement": "inhibition", "setting": "[15]", "result": 15.7, "unit": "%"}, {"measurement": "Kd", "setting": "[16]", "result": 30, "unit": "µM"}, {"measurement": "IC50", "setting": "[17]", "result": "0.075 µM (active)"}, {"measurement": "inhibition", "setting": "[18]", "result": -3.35, "unit": "%"}, {"measurement": "inhibition", "setting": "[19]", "result": -0.02, "unit": "%"}, {"measurement": "inhibition", "setting": "[20]", "result": 27.7, "unit": "%"}, {"measurement": "inhibition", "setting": "[21]", "result": 52.7, "unit": "%"}, {"measurement": "Ki", "setting": "[22]; read-out: Ki", "result": 0.857, "unit": "µM"}, {"measurement": "Ki", "setting": "[22]; read-out: pKi (converted)", "result": 0.813, "unit": "µM"}, {"measurement": "Kd", "setting": "[23]", "result": 30, "unit": "µM"}, {"measurement": "Kd", "setting": "[24]", "result": 5.7, "unit": "µM"}, {"measurement": "inhibition", "setting": "[25]", "result": 7.75, "unit": "%"}, {"measurement": "inhibition", "setting": "[26]", "result": 0.31, "unit": "%"}, {"measurement": "Kd", "setting": "[27]", "result": 30, "unit": "µM"}, {"measurement": "Kd", "setting": "[28]", "result": 0.013, "unit": "µM"}, {"measurement": "Kd", "setting": "[29]", "result": 30, "unit": "µM"}, {"measurement": "inhibition", "setting": "[30]", "result": 9.95, "unit": "%"}, {"measurement": "Kd", "setting": "[31]", "result": 0.84, "unit": "µM"}, {"measurement": "inhibition", "setting": "[32]", "result": -5.03, "unit": "%"}, {"measurement": "inhibition", "setting": "[33]", "result": 4.2, "unit": "%"}, {"measurement": "inhibition", "setting": "[34]", "result": 15.3, "unit": "%"}, {"measurement": "IC50", "setting": "[35]", "result": "0.041 µM (active)"}, {"measurement": "inhibition", "setting": "[36]", "result": -9.08, "unit": "%"}, {"measurement": "inhibition", "setting": "[37]", "result": 15.3, "unit": "%"}, {"measurement": "Kd", "setting": "[38]", "result": "0.013 µM (active)"}, {"measurement": "inhibition", "setting": "[39]", "result": 79.5, "unit": "%"}, {"measurement": "Kd", "setting": "[40]", "result": 30, "unit": "µM"}, {"measurement": "Kd", "setting": "[41]", "result": 30, "unit": "µM"}, {"measurement": "IC50", "setting": "[42]", "result": "1.21 µM (not active)"}, {"measurement": "Kd", "setting": "[43]", "result": 30, "unit": "µM"}, {"measurement": "Kd", "setting": "[44]", "result": 30, "unit": "µM"}]}
